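A five-concentration, 48-hour dose response in 96-well plates underlies each endpoint, interpolated linearly between surrounding concentrations. At the GI50, growth is halved.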 Active and inactive are the calls of the source. Cut-off read from the data, not from the text of the source: active = GI50 up to about 1.1 µM and inactive = higher.
Experiments:
Assay in all cases: DTP human tumour cell line panel, 48 h
786-0 = test system: 786-0
A498 = test system: A498
CAKI-1 = test system: CAKI-1
DU-145 = test system: DU-145
HCC 2998 = test system: HCC 2998
HCT-116 = test system: HCT-116
HCT-15 = test system: HCT-15
HT-29 = test system: HT-29
Hs-578T = test system: Hs-578T
IGROV-1 = test system: IGROV-1
K562 = test system: K562
KM12 = test system: KM12
LOX IMVI = test system: LOX IMVI
MDA-MB-231 = test system: MDA-MB-231
NCI-H23 = test system: NCI-H23
OVCAR-3 = test system: OVCAR-3
PC-3 = test system: PC-3
SK-MEL-2 = test system: SK-MEL-2
SK-MEL-5 = test system: SK-MEL-5
U-251 = test system: U-251

Compound | GI50 (786-0) | GI50 (A498) | GI50 (CAKI-1) | GI50 (DU-145) | GI50 (HCC 2998) | GI50 (HCT-116) | GI50 (HCT-15) [µM] | GI50 (HT-29) | GI50 (Hs-578T) | GI50 (IGROV-1) | GI50 (K562) | GI50 (KM12) | GI50 (LOX IMVI) | GI50 (MDA-MB-231) | GI50 (NCI-H23) | GI50 (OVCAR-3) | GI50 (PC-3) | GI50 (SK-MEL-2) | GI50 (SK-MEL-5) | GI50 (U-251)
Nc1cc(S(=O)(=O)O)cc2ccc(S(=O)(=O)O)cc12 | > 100 µM (inactive) | > 100 µM (inactive) | > 100 µM (inactive) | > 100 µM (inactive) | > 100 µM (inactive) | > 100 µM (inactive) | > 100 | > 100 µM (inactive) | > 100 µM (inactive) | > 100 µM (inactive) | > 100 µM (inactive) | > 100 µM (inactive) | > 100 µM (inactive) | > 100 µM (inactive) | > 100 µM (inactive) | > 100 µM (inactive) | > 100 µM (inactive) | > 100 µM (inactive) | > 100 µM (inactive) | > 100 µM (inactive)
CC1=CC(=O)c2c(O)cccc2C1=O [PLUMBAGIN] | 1.65 µM (inactive) | 5.86 µM (inactive) | 1.83 µM (inactive) | 1.65 µM (inactive) | 2.07 µM (inactive) | 1.66 µM (inactive) | 1.7 | 1.89 µM (inactive) | 2.91 µM (inactive) | 1.78 µM (inactive) | 0.391 µM (active) | 6.17 µM (inactive) | 1.81 µM (inactive) | 1.92 µM (inactive) | 1.81 µM (inactive) | 1.03 µM (active) | 2.21 µM (inactive) | 1.85 µM (inactive) | 1.62 µM (inactive) | 6.17 µM (inactive)

Reference: ChEMBL document CHEMBL1201862, “PubChem BioAssay data set” (2004)
